Tests used:
[1] = Solubility in FaSSIF (Fasted State Simulated Intestinal Fluid); format: physicochemical; conditions: kinetic from dmso stock, FaSSIF pH 6.5, 25° C.
Description: Solubility in FaSSIF (Fasted State Simulated Intestinal Fluid)
Certain Compounds of the Disclosure were assessed for the apparent solubility in FaSSIF.
0.420 g of NaOH, 3.438 g of NaH2PO4 and 6.186 g of NaCl were dissolved into about 900 mL ultrapure water. The solution was adjusted to the pH of 6.5 with 1N NaOH or 1N HCl. The solution was then diluted with ultrapure water to 1000 mL at room temperature. The resulting solution is used as buffer solution.
2.240 g of FaSSIF Powder was added to about 500 mL of above-mentioned buffer solution. The solution was stirred until powder was completely dissolved. Then the solution was diluted with buffer A to 1000 mL at room temperature. This solution is FaSSIF to be used in the following experiment.
15 μL of stock solution (10 mM) of each sample was placed into their proper 96-well rack. 485 μL of FaSSIF was added into each vial of the cap-less solubility sample plate. One stir stick was added to each vial and the vial was sealed using a molded PTFE/Silicone plug. The solubility sample plate was transferred to the Eppendorf Thermomixer Comfort plate shaker and shaked at 25° C. at 1100 RPM for 2 hours. After completion of the 2 hours, the stir sticks using a big magnet were removed. The samples from the solubility sample plate were transferred into the filter plate. Using the vacuum manifold, all the samples are filtered. Aliquot of 5 μL was taken from filtrate followed by addition of 5 μL DMSO and 490 μL of a mixture of H2O and acetonitrile containing internal standard (1:1).
3 μM Standards solution (STD) was prepared from the 10 mM DMSO STD plate.as following: transferring 6 μL into the remaining empty plate, adding 194 μL of DMSO to that plate to have a STD concentration of 300 μM. From the 300 μM DMSO STD plate, 5 μL solution was transferred into the remaining empty plate. Addition of 5 μL PBS and 490 μL of a mixture of H2O and acetonitrile containing internal standard (1:1) to that plate furnished a final STD concentration of 3 μM STD solution.
The samples are analyzed and quantified against the standard of known concentration using LC/MS/MS, calculating the solubility of the test compound as following (DF means the dilution factor):
[Sample solubility in FsSSIF (04)]=Area Ratio sample×DF sample×[STD]/Area Ratio STD

[2] = Liver microsomal stability (HLM); format: in vitro ADME; conditions: human, liver microsomes, human liver microsomes 0.5 mg/mL, 1 μM compound, NADPH
[3] = tested on: MDA-MB-436 subcutaneous human breast cancer model; assay: In vivo efficacy in MDA-MB-436 subcutaneous xenograft; conditions: NOD SCID mice, 28 days
Description: Anti-tumor efficacy of USP1 inhibitors were evaluated in mice using the MDA-MB-436 subcutaneous human breast cancer model that harbors the loss-of-function BRCA1 mutation. 6-8 weeks old female NOD SCID mice from Beijing Anikeeper Biotech Co., Ltd. were inoculated subcutaneously with 1×10^7 MDA-MB-436 tumor cells. When tumors reached a size of approximately 130 mm 3 mice were randomized into group of 5 or 9 and dosed via oral gavage once or twice daily for 28 days with either vehicle (twice daily, 9 animals), one dose of USP1 inhibitor 1-107 at 150 mg/kg (twice daily, 5 animals), three doses of USP1 inhibitor I-111 at […] (once daily, 9 animals per group), or one dose of USP1 inhibitor 1-124 at 150 mg/kg (twice daily, 5 animals). Body weight and tumor volume were measured twice per week. Tumor volume (TV) was calculated as mean and standard deviation of the mean for each treatment group. The percentage tumor growth inhibition (TGI) was calculated using the formula: TGI=(RTVvehicle−RTVtreatment)*100)/(RTVvehicle −1), where RTV is the mean relative volumes (RTV=TVDay terminal[…]) of the tumors in the treatment and the vehicle groups, respectively, on a given day from Day 0-Day 28 where Day 0 is the first day of treatment.
All treatment groups were well-tolerated, with various dose levels and dosing frequency for the duration of the treatment period from day 0 to day 28 in the tumor bearing mice, as shown in FIG. 2.

**Q.** Which solubility at 2 h [1] does the source give for `COc1ncnc(C2CC2)c1-c1ncc2cc(C3CCN(C)CC3)c(=O)n(Cc3ccc(-c4nc(C(F)(F)F)cn4C4CC4)cc3)c2n1` [Compound I-111] here?
**A.** ≥ 100 µM

**Q.** What about the microsomal CLint at 1 μM [2] of the same compound?
**A.** < 10 µL/min/mg

**Q.** What about the “TGI (tumor growth inhibition)” value ([3]; 10 mg/kg QD oral gavage) of the same compound?
**A.** ~55%

**Q.** What about the “TGI (tumor growth inhibition)” value ([3]; 30 mg/kg QD oral gavage) of the same compound?
**A.** ~80%

**Q.** And the “TGI (tumor growth inhibition)” value ([3]; 60 mg/kg QD oral gavage)?
**A.** > 100%
